From patent US20060258597A1, “Antitumorigenic drug combination and dosing schedule” (priority 2005, published 2006)
[ ]: non-standard residue; d: D form. d(aIle) = CC[C@H](C)[C@@H](N)C(=O)O; Nva = CCC[C@H](N)C(=O)O; Sar = CNCC(=O)O

System: HT-1080 cells
Experiment: HT-1080 tumor growth inhibition in SCID mice (subcutaneous flank xenograft)
Type: in vivo
Settings: peptide 120 Mpk BID SC and/or bevacizumab 3.0 Mpk twice per week SC; for % T/C: size of tumor treated/control
Description: Female SCID mice (Charles River Laboratories, Wilmington, Mass., USA) with an average body weight of 18.7 g were inoculated subcutaneously into the right flank with 0.1 mL of about 0.5×10^6 HT-1080 cells (1:1 matrigel) on a Friday. Day 3, post inoculation (Monday), the mice were ear tagged and randomized into groups of ten control and treated groups. The representative prodrug of a peptidomimetic of the second of the three Type-1 repeats of TSP-1, N-Ac-Sar-Gly-Val-D-alloIle-Thr-Nva-Ile-Arg-Pro-NHCH2CH3 (120 mpk), was administered twice per day (BID) during the dosing regimen, and the representative […] bevacizumab (3 mpk) was administrated each Monday and Wednesday during the same dosing regimen. Tumors were measured with calipers every Monday, Wednesday and Friday days beginning at day 3, post inoculation. Tumor volumes were calculated according to the formula V=L×W^2/2, wherein V is volume (mm^3), L is length and W is width. Antitumorigenesis was measured by percent tumor growth inhibition (TGI).
The term “mpk,” as used herein, means milligrams drug per kilogram mammal.
The term “SE,” as used herein, means standard error.
The term “T/C,” as used herein, means size of tumor (treated/control).
The term “SC,” as used herein, means subcutaneously.
The term “p-value,” as used herein, means confidence level of comparison to control.
Controls comprised vehicle only. Vehicles for N-Ac-Sar-Gly-Val-D-alloIle-Thr-Nva-Ile-Arg-Pro-NHCH2CH3 and bevacizumab were D5W (5% glucose in water) and isotonic saline (0.9% NaCl in water), respectively.

Substance	% TGI (percent tumor growth inhibition) (Day 7) [%]	% T/C (Day 7) [%]	% TGI (percent tumor growth inhibition) (Day 10) [%]	% T/C (Day 10) [%]	% TGI (percent tumor growth inhibition) (Day 12) [%]	% T/C (Day 12) [%]	% TGI (percent tumor growth inhibition) (Day 14) [%]	% T/C (Day 14) [%]
bevacizumab	33.68	66.32	39.40	60.60	39.25	60.75	58.30	41.70
Ac-[Sar]GV[d(aIle)]T[Nva]IRP-NHEt	30.24	69.76	41.61	58.39	44.30	55.70	48.79	51.21
